In patent US7196114B2, “Substituted 3-(benzoylureido) thiophene derivatives, processes for preparing them and their use” (Sanofi-Aventis Deutschland GmbH, priority 2003, dated 2007) one finds IC50 and melting point data, which are given here for twelve compounds.

Data set [1] concerns the target T1, human glycogen phosphorylase a (Homo sapiens, UniProt P06737).
T1 sequence (P06737 1-847): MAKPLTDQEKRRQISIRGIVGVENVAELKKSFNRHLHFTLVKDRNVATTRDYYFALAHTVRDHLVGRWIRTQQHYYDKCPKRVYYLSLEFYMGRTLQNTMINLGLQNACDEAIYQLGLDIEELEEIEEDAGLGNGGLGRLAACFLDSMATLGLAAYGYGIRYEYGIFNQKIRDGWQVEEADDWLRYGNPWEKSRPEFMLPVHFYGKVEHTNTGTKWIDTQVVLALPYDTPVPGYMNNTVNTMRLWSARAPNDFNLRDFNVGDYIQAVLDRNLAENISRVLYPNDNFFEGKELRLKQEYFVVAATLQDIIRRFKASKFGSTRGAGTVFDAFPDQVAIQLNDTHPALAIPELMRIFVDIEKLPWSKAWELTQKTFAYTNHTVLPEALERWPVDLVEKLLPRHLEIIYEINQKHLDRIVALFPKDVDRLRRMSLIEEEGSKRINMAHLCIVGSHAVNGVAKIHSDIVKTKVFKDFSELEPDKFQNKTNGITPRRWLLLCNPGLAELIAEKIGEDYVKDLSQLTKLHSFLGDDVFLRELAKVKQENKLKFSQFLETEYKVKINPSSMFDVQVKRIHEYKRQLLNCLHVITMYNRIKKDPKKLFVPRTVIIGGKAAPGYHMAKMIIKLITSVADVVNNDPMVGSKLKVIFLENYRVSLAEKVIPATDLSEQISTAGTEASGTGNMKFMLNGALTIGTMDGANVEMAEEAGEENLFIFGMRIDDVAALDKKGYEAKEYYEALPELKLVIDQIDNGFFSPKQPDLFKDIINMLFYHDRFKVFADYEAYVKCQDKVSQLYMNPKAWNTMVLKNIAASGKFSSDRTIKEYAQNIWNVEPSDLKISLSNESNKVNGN
The data set is described as follows: Glycogen phosphorylase a activity test. The class given is biochemical. As to conditions: inhibition of GPa in vitro, reverse direction (glycogen synthesis from glucose 1-phosphate, released inorganic phosphate, absorption at 820 nm).

For `CC(=O)c1sc(-c2ccccc2)cc1NC(=O)NC(=O)c1cc(F)c(F)cc1Cl` [Example 15], the melting point (commonly the temperature of the solid-liquid transition) was found to be 204.8 °C. In data set [1], the concentration for half-maximal inhibition (IC50) (in general, the concentration at which inhibition is half-maximal) turned out to be 0.17 µM.
Taken in the same sequence, the figures for `NC(=O)c1sc(-c2ccccc2)cc1NC(=O)NC(=O)c1cc(F)c(F)cc1Cl` [Example 17] were above 300 °C and 0.03 µM.
Compound `O=C(NC(=O)c1cc(F)c(F)cc1Cl)Nc1cc(S(=O)(=O)N2CCCCC2)sc1N1CCC(C(=O)O)CC1` [Example 4d, 1-[3-[3-(2-Chloro-4,5-difluorobenzoyl)ureido]-5-(piperidine-1-sulfonyl)-thiophen-2-yl]piperidine-4-carboxylic acid] came in with a melting point of 219.9 °C. Further, the IC50 in data set [1] stood at 0.11 µM.
For `O=C(NC(=O)c1cc(F)c(F)cc1Cl)Nc1cc(-c2ccccc2)sc1C(=O)O` [Example 21] the same measures were 226.5 °C and 0.01 µM.
For `Nc1nnc(-c2sccc2NC(=O)NC(=O)c2cc(F)c(F)cc2Cl)o1` [Example 2c, 1-[2-(5-Amino[1,3,4]oxadiazol-2-yl)thiophen-3-yl]-3-(2-chloro-4,5-difluorobenzoyl)urea], the IC50 in data set [1] came to 0.45 µM.
On the same count and under the same terms, to `O=C(NC(=O)c1cc(F)c(F)cc1Cl)Nc1cscc1-c1ccccc1` [Example 30] belongs 1.4 µM.
Compound `O=C(NC(=O)c1cc(F)c(F)cc1Cl)Nc1cc(-c2ccc(F)cc2)sc1C(=O)O` [Example 3b, 3-[3-(2-Chloro-4,5-difluorobenzoyl)ureido]-5-(4-fluorophenyl)thiophene-2-carboxylic acid] yielded a melting point of 227.7 °C. In addition, in data set [1], the IC50 came to 0.01 µM.
With `NC(=O)c1sccc1NC(=O)NC(=O)c1cc(F)c(F)cc1Cl` [Example 6], the IC50 in data set [1] was 0.7 µM.
Compound `O=C(NC(=O)c1cc(F)c(F)cc1Cl)Nc1ccsc1-c1n[nH]c(=O)o1` [Example 1d, 1-(2-Chloro-4,5-difluorobenzoyl)-3-[2-(5-oxo-4,5-dihydro[1,3,4]oxadiazol-2-yl)thiophen-3-yl]urea] had a melting point of 236.1 °C. Besides, the IC50 in data set [1] was found to be 0.03 µM.
The compound `COc1ccc(-c2cc(NC(=O)NC(=O)c3cc(F)c(F)cc3Cl)c(C(N)=O)s2)cc1` [Example 24] showed a melting point above 300 °C. For the same compound, in data set [1], the IC50 was 0.04 µM.
Taken in the same sequence, the figures for `NC(=O)c1sc(-c2cccs2)cc1NC(=O)NC(=O)c1cc(F)c(F)cc1Cl` [Example 23] were > 250 °C (dec.) and 0.05 µM.
`O=C(NC(=O)c1ccc(F)cc1Cl)Nc1ccsc1-c1nnn[nH]1` [Example 33]: the melting point was 219.8 °C. In addition, the IC50 in data set [1] was determined as 0.08 µM.
